Test results taken from patent publication US20030134851A1, “Methods and compositions for providing glutamine” (priority 2001, published 2003).
Entries after “also recorded” stand apart in the source; their conditions may differ.

Legend:
[1] = system: small intestine bioptic fragments of patients with untreated celiac disease; experiment: Organ culture of small intestine biopsies of untreated celiac patients (TUNEL, CD25); format: cell-based, human; details: 40 ug/ml, 24 hours organ culture
Description: The study was performed in a blind fashion. For this study a organ culture model of celiac, which is a widely used and validated to explore gluten toxicity and mucosal damage in celiac disease was utilized. For the purpose of this project small intestine bioptic fragments of patients with untreated celiac disease were used. Biopsies of untreated celiac patients are ideal to monitor aspects of mucosal damage including induction of epithelial apoptosis and increase of mucosal inflammation.
Twelve adult patients, who were diagnosed as potential untreated celiac patients, were enrolled. Their disease was confirmed by clinical signs, the presence of high titres of anti-tissue transglutaminase and histological analysis of small intestine biopsies.
Organ cultures were performed using standard methods described in Maiuri, L. et al, Gastroenterology 110, 1368-1378. (1996). Briefly a small biopsy fragment (around 1 mm×1 mm) was put on stainless steel mesh and cultured in medium supplemented with the different compounds for a period of 24 hours. The standard positive and negative controls used in studies involving celiac patients and in vitro challenge of biopsies were utilized. The positive control was 1 mg/ml of gliadin peptic-tryptic digest. The negative control was the medium alone. All the compounds to be tested were used at the final concentration of 40 ug/ml. […]
Antigen detection on frozen tissue sections was performed by immunohistochemistry as described in Maiuri, L. et al. Blockage of T-cell costimulation inhibits T-cell action in Celiac disease. […] At least 5 slides for each sample were blindly evaluated. […]
The total number of TUNEL+ enterocytes was referred as percentage of enterocytes. The total number of CD25+ cells in the lamina propria was determined within a standard reference area of 1 mm^2. The counts were performed at a microscope with a calibrated ocular graticule aligned parallel to the muscolaris mucosae and independently analysed by two observers; the results were compared afterwards.

[2] = administered intravenously, humans; cited from earlier work
[3] = orally administered radiolabeled, rats; cited from earlier work

**Q.** Which “Induction of epithelial apoptosis (TUNEL) and sub-epithelial inflammation (CD25)” value [1] does the source give for `CC(=O)N[C@@H](CCC(N)=O)C(=O)O` [N-acetyl-L-glutamine] here?
**A.** did not induce any effect

**Q.** And the “Trophic effect on the biopsies of untreated celiac patients” value [1]?
**A.** clear trophic effect; also recorded: appears to improve the overall condition of the mucosa even compared to medium alone

**Q.** And the “Trophic effect on the biopsies of untreated celiac patients” value ([1]; listed as N-acetyl-glutamine)?
**A.** clear trophic effect

**Q.** And the “Dose excreted in the urine” value [2]?
**A.** 20-40%

**Q.** What about the “Absorption across the intestinal mucosa” value [3] of the same molecule?
**A.** absorbed intact
